Laboratory results published in US20130143902A1, “COMPOSITIONS AND METHODS OF TREATING A PROLIFERATIVE DISEASE WITH A QUINAZOLINONE DERIVATIVE” (GILEAD CALISTOGA LLC, priority 2011, published 2013).

Key:
primary T-ALL tumors = assay: Viability of primary T-ALL tumors; assay type: cell-based, human; details: 1.0, 2.5, and 5.0 μM, 72 hours
Method: Cryopreserved samples from the Columbia Presbyterian Hospital, the Erasmus MC-Sophia Children's Hospital, and the University of Padua were used. All samples were collected with informed consent and supervised by the institutes' review boards and the Acute Lymphoblastic Leukemia Strategic Scientific Committee.
For primary T-ALL samples, cell viability was determined using the BD Cell Viability kit (BD Biosciences) and fluorescent counting beads as previously described in Armstrong, F. et al., NOTCH is a key regulator of human T-cell acute leukemia initiating cell activity, Blood 113, 1730-1740 (2009). Cells were plated with MS5-DL1 stroma cells. After 72 hours following treatment, cells were harvested and stained with an APC-conjugated anti-human CD45 according to the manufacturer's instructions. For solid tumor cell lines, cellular viability was determined using the AlamarBlue kit (Invitrogen). About 10,000 cells in 100 μL of media containing 10% FBS were aliquoted into individual wells of a 96-well plate and treated with vehicle (DMSO) or compound in triplicate for 24 hours. Ten μL of AlamarBlue reagent was added to each well and incubated for 4 hours at 37° C. with 5% CO2. Fluorescence was measured with an excitation wavelength at 530 to 560 nm and emission wavelength at 590 nm using Spectramax M5 plate reader (Molecular Devices, Sunnyvale, Calif.). […]

CCRF-CEM cells [1] = assay: Immunoblot of signaling and pro-apoptotic pathways in CCRF-CEM cells; assay type: cell-based
Method: Cell lysates (from cell lines or thymocytes) were prepared on ice in M-PER Mammalian Protein Extraction reagent (Pierce) containing a cocktail of protease and phosphatase inhibitors as described in Swat, W. et al., Essential role of PI3 Kdelta and PI3 Kgamma in thymocyte survival, Blood 107, 2415-2422 (2006). Equal amounts of total protein from lysates were separated using SDS-PAGE, transferred to PVDF membrane (Immobilon-P, Millipore). Membranes were incubated overnight incubation with appropriate primary antibodies. Bound antibodies were visualized with HRP-conjugated secondary antibodies and ECL chemistry (SuperPico West, Pierce).
The ability of Compound B treatment to interfere with proapoptotic effectors such as the BH3-only pro-apoptotic protein BAD and to repress the expression of BIM was also examined. CCRF-CEM cells were treated with Compound B ranging from 0, 0.25, 0.5, 1.0, 2.5, 5.0 and 10 μM.

PTEN null T-ALL = assay: Diseased Lck/PTEN^fl/fl mice with PTEN null T-ALL; assay type: in vivo
Method: Mouse whole blood was incubated with appropriate antibodies and processed using the BD Bioscience BD FACS Lysing Solution according to the manufacturer's instructions. Immediately after lysis, cells were permeabilized with 0.025% Tween-20 in lysing solution for 15 minutes, then incubated with Ki67 antibodies. Single cell suspensions of thymocytes were isolated and stained with the appropriate antibodies as described in Swat, W. et al., Essential role of PI3 Kdelta and PI3 Kgamma in thymocyte survival, Blood 107, 2415-2422 (2006).
All mice were kept in specific pathogen-free facility at Columbia University Medical Center. All procedures were performed in accordance with the guidelines of the Institutional Animal Care and Use Committee. Lck-cre, NOD.Cg-Prkdc^scid Il2rg^tmlWjl/Sz and Gt(ROSA)26Sor^tml(Luc)Kael/J mice were obtained from the Jackson Laboratory. Mice deficient for PTEN in the T-cell lineage were generated by crossing Lck-cre with floxed PTEN. P110γ^−/− and p110δ^−/− mice as described in Swat, W. et al., Essential role of PI3 Kdelta and PI3 Kgamma in thymocyte survival, Blood 107, 2415-2422 (2006). The animals were intercrossed with Lck-cre/PTEN^fl/fl animals to generate mice homozygous mutant for either p110γ or p110δ and PTEN or homozygous mutant for p110γ, 110δ, and PTEN.
Lck/PTEN^fl/fl mice were crossed with the mice having a luciferase cDNA, preceded by a LoxP-stop-LoxP cassette was introduced into the ubiquitously expressed ROSA26 locus. […] The results are consistent with the reduction in whole blood cells and CD4 single positive population of tumor cells.
Lck/PTEN^fl/fl mice having T-ALL were administered with Compound B at an oral dose of 10 mg/kg every 8 hours or DMSO vehicle for a period of 7 days. […] Compound B extended the median survival to 45 days compared to 7.5 days for the vehicle group (data not shown).
Diseased Lck/PTEN^fl/fl mice (i.e. Lck/PTEN^fl/fl mice diagnosed with T-ALL) were treated with Compounds B for a period of 7 days. Mice were examined for sequential blood counts, peripheral smears, and flow cytometric analyses. […] Forward scatter (FSC) and Ki67 staining were indicators of cell size and proliferation, respectively; and apoptosis was detected by assessing the […] population after PI staining.
PTEN^fl/fl mice were crossed with the mice having a luciferase cDNA, preceded by a LoxP-stop-LoxP cassette was introduced into the ubiquitously expressed ROSA26 locus. Progeny were then crossed with Lck-cre transgenics to delete PTEN in T-cell progenitors and induce expression of luciferase. Imaging on T-ALL tumor bearing mice was performed at Day 0 and 4 after treatment of Compound B or vehicle.

CCRF-CEM xenografts = assay: Subcutaneous CCRF-CEM xenograft, bioluminescence; assay type: in vivo, mice; details: 10 mg/kg for 4 days, subcutaneous tumors
Method: Luminescent CCRF-CEM (CEM-luc) cells were generated by lentiviral infection with FUW-luc and selection with neomycin. Luciferase expression was verified with the Dual-Luciferase Reporter Assay kit (Promega). CEM-luc cells (2.5×10^6) embedded in Matrigel (BD Biosciences) were injected in the flank of NOD.Cg-Prkdc^scid Il2rg^tmlWjl/Sz mice. After 1 week, mice were treated by oral gavage with vehicle (0.5% methyl cellulose, 0.1% Tween-80) or compound every 8 hours daily for 4 days. Mice were anesthetized by isoflurane inhalation […] of D-luciferin ([…], Xenogen). Photonic emission was imaged with the In Vivo Imaging System (IVIS, Xenogen). Tumor bioluminescence was quantified by integrating the photonic flux (photons per second) through a region encircling each tumor using the LIVING IMAGES software package (Xenogen).
(§1) To assess the in vivo relevance of these observations, mice with subcutaneous or intravenous CCRF-CEM cells were treated with either Compound B or DMSO vehicle. In the subcutaneous xenographs, luciferase expressing CCRF-CEM cells were injected into the flanks of immunodeficient mice and allowed to grow for 1 week before administering vehicle control or 10 mg/kg of Compound B for a period of 4 days. In the intravenous xenographs, treatment commenced 3-day post-injection of tumor cells for a period of 7 days.

CCRF-CEM xenograft = assay: Intravenous (systemic) CCRF-CEM xenograft, survival; assay type: in vivo, mice; details: treatment for 7 days from 3 days post-injection; vehicle control 23 days
Method: CCRF-CEM cells (5×10^6) were injected intravenously in fourteen NOD.Cg-Prkdc^scid Il2rg^tmlWjl/Sz mice. After 3 days, mice were segregated into two groups that received compound or vehicle for 7 days. Mice in both groups were then followed until moribund and euthanized.
as §1

CCRF-CEM cells [2] = assay: Proliferation and apoptosis of CCRF-CEM cells; assay type: cell-based; details: 1, 2.5, or 5 μM, within 24 hours, persisted 4 days
Method: CCRF-CEM cells were obtained from ATCC and grown in RPMI-1640 medium containing 10% FBS and antibiotics.
Cell counts for mice thymii were determined as described in Swat, W. et al., Essential role of PI3 Kdelta and PI3 Kgamma in thymocyte survival, Blood 107, 2415-2422 (2006). Cell proliferation of untransfected or shRNA transfected CCRF-CEM cells was followed by cell counting of samples in triplicate using a hemocytometer.
Cells were stained with APC-conjugated Annexin-V (BD Biosciences) in Annexin Binding Buffer (Miltyeni Biotec) and analyzed by flow cytometry.
CCRF-CEM cells, a PTEN null acute lymphoblastoid leukemia cell line, were treated with Compound B of 1, 2.5, or 5 μM or control of DMSO vehicle for a period of 4 days.

## Cc1ccccc1-n1c(C(C)Nc2nc(N)nc3[nH]cnc23)nc2cccc(C)c2c1=O (centres unmarked) [Compound B, 2-(1-(2-amino-9H-purin-6-ylamino)ethyl)-5-methyl-3-o-tolylquinazolin-4(3H)-one]
Primary T-ALL tumors
  viability of tumor cells: reduced
CCRF-CEM cells [1]; 0.25 to 10 μM
  phosphorylation of GSK3β and mTOR: reduction
CCRF-CEM cells [1]; Compound B treatment
  expression of BIM (including the L and S isoforms): enhanced expression
  phosphorylation of BAD: reduction
CCRF-CEM cells [1]; […]
  Akt/PKB (Ser473) phosphorylation: reduction and complete abrogation
PTEN null T-ALL; Compound B for 7 days, versus vehicle control, P<0.01
  weights of thymi, liver, spleen, and kidneys: significantly less
PTEN null T-ALL; Compound B treatment for 7 days, by Day 4
  WBC: significant reduction
PTEN null T-ALL; Compound B treatment, Day 4, versus vehicle
  bioluminescent imaging signals: dramatically lower
PTEN null T-ALL; Compound B treatment, Day 4 through Day 7
  apoptosis (sub-G0 population after propidium iodide staining): increase in apoptosis
PTEN null T-ALL; oral 10 mg/kg every 8 hours for 7 days, vehicle group 7.5 days
  median survival: 45 days
CCRF-CEM xenografts
  difference in luminescence, treated versus vehicle treated animals: 5 fold
CCRF-CEM xenograft
  median survival time: 35 days
CCRF-CEM cells [2]
  apoptosis: promoted apoptosis
  proliferation: prevented proliferation
